# Reference: patent publication US7241733B2, “Mammalian EPO mimetic CH1 deleted mimetibodies, compositions, methods and uses” (Centocor, Inc., priority 2003, dated 2007)
# pEC50: −log10 of the molar value. “Also recorded” adds a separate entry of the source.
# Columns and labels:
# [1] = 50% serum; cited from earlier work
# [2] = test system: cells that express the EPO receptor; experiment: complement lysis of cells that express the EPO receptor; assay type: cell-based; conditions: preliminary studies
# Source text: It has been shown that mutation of two […] (L) residues, L234 & L235, in the IgG1 lower hinge region to alanine (A) will abrogate the ability of the immunoglobulin to mediate complement dependent cytotoxicity (CDC) and antibody dependant cellular cytotoxicity (ADCC) (Hezereh et al., 2001, J. Virol., vol. 75 (24), 12161-68). […] This may be due to the low number of receptors that are found on erythroid progenitor cells. In addition the in vivo expansion of erythriod progenitors as evidenced by significant increases in hematocrit supports the possible functional irrelevance of immune effector functions. However, while no effector function associated affects have been observed, there remains an interest in introducing these mutations as a precautionary step.
# [3] = serum concentrations measured by ELISA in normal mice; assay type: in vivo
# Protocol: (§1) In vivo studies were done in normal mice to compare the half-life of EMP-NfusCG1 to that of rHuEPO and to compare their effects on erythropoiesis. […] Also seen in preliminary studies, when rHuEPO was dosed at 2000 U/kg the hematocrit of the mice was maximally elevated on day 4 and fell back to near baseline levels by day 7. […] The difference in molecular weights was also taken into consideration (rHuEPO=30,400 daltons, EMP-NfusCG1=62,200 daltons).
# The serum concentrations of both rHuEPO and EMP-NfusCG1 were measured by ELISA. […] This is consistent with the expected 2 to 8 hour half-life of rHuEPO in rodents. (PRI Expert Report, Part IC2: Toxico-Pharmacological Documentation). In contrast, levels of EMP-NfusCG1 as high as 1.5 ug/mL were detected on day 4 and remained high through the end of the study. The linearity of the clearance profile in FIG. 6 is unusual. It may be that, since the first time point was 3 days after the last injection, the maximum concentration (Cmax) was reached before the first sample was taken and therefore the peak of the exponential curve was not observed. Another explanation is that the absorption and elimination profiles of this novel construct are such that the clearance profile appears linear.
# normal mice = experiment: in vivo erythropoiesis (hematocrit) in normal mice; conditions: equal activity units
# Protocol: as §1
# [4] = test system: EPO dependent UT-7/EPO cell line; experiment: in vitro bioactivity assay: UT-7/EPO cell viability after rHuEPO withdrawal (MTS); assay type: cell-based, human
# Protocol: The activity of EMP-NfusCG1 was first tested in an in vitro bioactivity assay. For this assay, the EPO dependent UT-7/EPO cell line, derived from a patient with acute megakaryoblastic leukemia, was used (Komatsu et al., 1993, Blood, vol. 82 (2), 456-464). These cells undergo programmed cell death 48 to 72 hours after withdraw from media supplemented with rHuEPO. Cells that have been incubated in the absence of rHuEPO for 24 hours can be saved if treated with rHuEPO or an EPO agonist. EMP-NfusCG1 was added to cells starved without rHuEPO and cell viability was determined 48 hours after treatment using the tetrazolium compound MTS (CellTiter 96 Aqueous One Solution, Promega) that is metabolized by living cells to yield a product with an absorbance that can be measured. […] In addition, these same cells were stimulated with EMP-NfusCG1 and tyrosine phosphorylation patterns visualized by running cell lysate through a polyacrylamide gel.
substance,measurement,setting,value
"EMP-1: 20 amino acid peptide with no sequence homology to HuEPO, able (as a dimer) to activate the EPO receptor (GGTYSCHFGPLTWVCKPQGG)",ex-vivo half-life,[1],8 h
"EMP-NfusCG1: EMP-1 peptide, two Gly-Gly-Gly-Ser repeats, human J region, IgG1 hinge, CH2 and CH3; SEQ ID NO:50",complement lysis of cells that express the EPO receptor,[2],does not mediate complement lysis
same,serum level detected on day 4,"[3]; day 4, ELISA",≤ 1500 ng/mL
same,approximate half-life,"[3]; normal mice, calculated from serum clearance profile",~259 h
same,duration of hematocrit response compared to rHuEPO,normal mice,elevated levels are maintained for a longer period; also recorded: prolonged
same,maximal hematocrit response compared to rHuEPO,normal mice,significantly higher maximal hematocrit; also recorded: higher maximal response
EMP-NfusCG4: identical to EMP-NfusCG1 except that the hinge and constant regions are of the G4 subtype; SEQ ID NO:51,pEC50,[4]; average,9.46
same,"potency relative to EMP-NfusCG1 (fold less), on average",[4]; average of assays,about 10 fold
same,expected difference to rHuEPO,[4]; worked out from 10 fold vs EMP-NfusCG1 and 5 fold vs rHuEPO,about 50 fold
